Values quoted from earlier work, collected in US9174839B2, “Methods and compositions for wound healing” (IMBED BIOSCIENCES, INC., priority 2008, dated 2015).

Experiments:
[1] = test system: fibroblasts; settings: in vitro monolayer cell cultures
[2] = test system: keratinocytes; settings: in vitro monolayer cell cultures
[3] = test system: hepatocytes; settings: in vitro
[4] = test system: lymphocytes; settings: in vitro
[5] = incisional wounds

silver ions
toxicity to fibroblasts [1]: cytotoxic effects | toxicity to keratinocytes [2]: cytotoxic effects | cytotoxic effects on hepatocytes [3]: cytotoxic effects | cytotoxic effects on lymphocytes [4]: cytotoxic effects

CC1=C(/C=C/C(C)=C/C=C/C(C)=C/C(=O)O)C(C)(C)CCC1 [tretinoin]
fibroblastic proliferation [5]: increased | production of collagen [5]: diminished
